Target: human FXR (NR1H4) (Homo sapiens (Human), UniProt Q96RI1)
Test: Human FXR (NR1H4) Assay (Gal4 promoter driven luciferase reporter, CHO cells)
Assay type: cell-based
Settings: for Efficacy (%): FXR reporter assay in CHO cells, efficacy normalized to CDCA set as 100%
From the text: Human FXR (NR1H4) Assay Determination of a ligand mediated Gal4 promoter driven transactivation to quantify ligand binding mediated activation of FXR. […] The principle application of this reporter assay system is to quantify functional activity of human FXR. The assay utilizes non-human mammalian cells, CHO (Chinese hamster ovary) cells engineered to express human NR1H4 protein (referred to as FXR). Reporter cells also incorporate the cDNA encoding beetle luciferase which catalyzes the substrates and yields photon emission. Luminescence intensity of the reaction is quantified using a plate-reading luminometer, Envision. Reporter Cells include the luciferase reporter gene functionally linked to an FXR responsive promoter. Thus, quantifying changes in luciferase expression in the treated reporter cells provides a sensitive surrogate measure of the changes in FXR activity. […] The assay is according to the manufacturer's instructions. […] Retrieve Reporter Cells from −80° C. storage. Perform a rapid thaw of the frozen cells by transferring a 10 ml volume of 37° C. cell recovery medium into the tube of frozen cells. Recap the tube of Reporter Cells and immediately place it in a 37° C. water bath for 5-10 minutes. Retrieve the tube of Reporter Cell Suspension from the water bath. Sanitize the outside surface of the tube with a 70% alcohol swab, and then transfer it into the cell culture hood. Dispense 90 μl of cell suspension into each well of the 96-well Assay Plate. Transfer the plate into 37° C. incubator, allowing the cells adherent to the bottom of the well. Dilute compounds in Dilution Plate (DP), and administrate to cells at Assay Plate (AP). DMSO content of the samples was kept at 0.2%. Cells were incubated for additional 22 hours before luciferase activities were measured. Thirty minutes before intending to quantify FXR activity, remove Detection Substrate and Detection Buffer from the refrigerator and place them in a low-light area so that they may equilibrate to room temperature. Remove the plate's lid and discard all media contents by ejecting it into an appropriate waste container. Gently tap the inverted plate onto a clean absorbent paper towel to remove residual droplets. Cells will remain tightly adhered to well bottoms. Add 100 μl of luciferase detection reagent to each well of the assay plate. Allow the assay plate to rest at room temperature for at least 5 minutes following the addition of LDR. Set the instrument (Envision) to perform a single 5 second “plate shake” prior to reading the first assay well. Read time may be 0.5 second (500 mSec) per well.

human FXR (NR1H4), sequence (Q96RI1 whole entry, the tested form may be a part): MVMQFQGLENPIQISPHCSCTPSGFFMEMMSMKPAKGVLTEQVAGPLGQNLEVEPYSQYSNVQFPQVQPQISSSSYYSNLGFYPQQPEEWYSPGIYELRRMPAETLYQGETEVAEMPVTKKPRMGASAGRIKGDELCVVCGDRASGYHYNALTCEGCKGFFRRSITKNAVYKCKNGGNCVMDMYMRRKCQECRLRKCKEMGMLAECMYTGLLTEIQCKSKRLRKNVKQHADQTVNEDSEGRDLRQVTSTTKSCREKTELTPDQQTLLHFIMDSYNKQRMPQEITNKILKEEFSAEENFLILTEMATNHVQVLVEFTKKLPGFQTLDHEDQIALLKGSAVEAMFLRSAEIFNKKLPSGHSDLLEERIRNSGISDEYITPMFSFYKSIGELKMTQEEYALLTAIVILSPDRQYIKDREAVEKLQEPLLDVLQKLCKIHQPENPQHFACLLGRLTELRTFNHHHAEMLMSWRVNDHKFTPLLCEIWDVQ

Row | SMILES | EC50 [nM] | Efficacy (%)
1 | CC(C)(C)c1ccc(S(=O)(=O)NC(=O)Nc2ccc([C@@H]3C[C@H]3c3ccc(OCc4c(-c5c(Cl)cccc5Cl)noc4C4CC4)cc3Cl)cc2)cc1 [Example 2d] | 100 to 1000 | 236
2 | CN(C)S(=O)(=O)NC(=O)Nc1ccc([C@@H]2C[C@H]2c2ccc(OCc3c(-c4c(Cl)cccc4Cl)noc3C3CC3)cc2Cl)cc1 [Example 1b] | 1000 to 10000 | 194
3 | O=C(NS(=O)(=O)C1CC1)c1ccc([C@@H]2C[C@H]2c2ccc(OCc3c(-c4c(Cl)cccc4Cl)noc3C3CC3)cc2Cl)cc1 [Example 2c] | 100 to 1000 | 209
4 | CC(C)(C)c1ccc(S(=O)(=O)NC(=O)c2ccc([C@@H]3C[C@H]3c3ccc(OCc4c(-c5c(Cl)cccc5Cl)noc4C4CC4)cc3Cl)cc2)cc1 [Example 2a] | 1000 to 10000 | 115
5 | CN(C)S(=O)(=O)NC(=O)c1ccc([C@@H]2C[C@H]2c2ccc(OCc3c(-c4c(Cl)cccc4Cl)noc3C3CC3)cc2Cl)cc1 [Example 1a] | 100 to 1000 | 271

Source: patent US10144729B2, “Isoxazole analogs as FXR agonists and methods of use thereof” (Enanta Pharmaceuticals, Inc., priority 2016, dated 2018)
